Data on 22 compounds can be found in US20050234046A1 (Kalypsys, Inc., priority 2004, published 2005).

Assay in all cases: Transient transfection (transactivation) assay in CV-1 cells, GAL4-PPAR chimera, luciferase reporter
What all share (type): cell-based
A general note: A reporter such as luciferase makes a cellular process visible.

One assay concerns the target T1, PPAR alpha (Homo sapiens, UniProt Q07869).
T1 construct: expressed in transfected cells; host or cells: CV-1 cells
T1 sequence (Q07869 239-466 limits assumed): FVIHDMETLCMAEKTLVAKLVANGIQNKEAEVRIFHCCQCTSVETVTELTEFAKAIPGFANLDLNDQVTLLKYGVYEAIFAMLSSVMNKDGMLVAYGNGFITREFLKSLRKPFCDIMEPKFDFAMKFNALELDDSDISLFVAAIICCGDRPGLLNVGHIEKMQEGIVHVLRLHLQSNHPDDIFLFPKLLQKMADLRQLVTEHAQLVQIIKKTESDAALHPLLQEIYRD
The text has this:
Compounds may be screened for functional potency in transient transfection assays in CV-1 cells or other cell types for their ability to activate the PPAR subtypes (transactivation assay). A previously established chimeric receptor system was utilized to allow comparison of the relative transcriptional activity of the receptor subtypes on the same synthetic response element and to prevent endogenous receptor activation from complicating the interpretation of results. See, for example; Lehmann, J. M.; Moore, L. B.; Smith-Oliver, T. A; Wilkinson, W. O.; Willson, T. M.; Kliewer, S. A., An antidiabetic thiazolidinedione is a high affinity ligand for peroxisome proliferatur-activated receptor γ (PPARγ), J. Biol. Chem., 1995, 270, 12953-6. The ligand binding domains for murine and human PPAR-alpha, PPAR-gamma, and PPAR-delta are each fused to the yeast transcription factor GAL4 DNA binding domain. CV-1 cells were transiently transfected with expression vectors for the respective PPAR chimera along with a reporter construct containing four or five copies of the GAL4 DNA binding site driving expression of luciferase. After 8-16 h, the cells are replated into multi-well assay plates and the media is exchanged to phenol-red free DME medium supplemented with 5% delipidated calf serum. 4 hours after replating, cells were treated with either compounds or 1% DMSO for 20-24 hours. Luciferase activity was then assayed with Britelite (Perkin Elmer) following the manufacturer's protocol and measured with either the Perkin Elmer Viewlux or Molecular Devices Acquest Xsee, for example, Kliewer, S. A., et. al. Cell 1995, 83, 813-819). Rosiglitazone is used as a positive control in the hPPAR-γ assay. Wy-14643 and GW7647 is used as a positive control in the hPPAR-α assay. GW501516 is used as the positive control in the hPPAR-δ assay.
Compounds of Examples 1-233 were assayed to measure their biological activity with respect to their EC50 values and efficacy for modulating PPAR-alpha, PPAR-gamma, and PPAR-delta as set forth in Table 3.

Another assay addresses T2, PPAR delta (Homo sapiens, UniProt Q03181).
T2 construct: expressed in transfected cells; host or cells: CV-1 cells
T2 sequence (Q03181 211-439 limits assumed): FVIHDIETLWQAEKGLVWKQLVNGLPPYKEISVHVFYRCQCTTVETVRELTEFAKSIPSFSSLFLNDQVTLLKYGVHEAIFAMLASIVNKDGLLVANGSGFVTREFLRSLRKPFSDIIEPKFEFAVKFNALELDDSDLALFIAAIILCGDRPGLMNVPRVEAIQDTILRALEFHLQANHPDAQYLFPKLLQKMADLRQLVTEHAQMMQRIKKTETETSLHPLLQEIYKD

The next assay addresses T3, PPAR gamma (Homo sapiens, UniProt P37231).
T3 construct: expressed in transfected cells; host or cells: CV-1 cells
T3 sequence (P37231 238-503 limits assumed): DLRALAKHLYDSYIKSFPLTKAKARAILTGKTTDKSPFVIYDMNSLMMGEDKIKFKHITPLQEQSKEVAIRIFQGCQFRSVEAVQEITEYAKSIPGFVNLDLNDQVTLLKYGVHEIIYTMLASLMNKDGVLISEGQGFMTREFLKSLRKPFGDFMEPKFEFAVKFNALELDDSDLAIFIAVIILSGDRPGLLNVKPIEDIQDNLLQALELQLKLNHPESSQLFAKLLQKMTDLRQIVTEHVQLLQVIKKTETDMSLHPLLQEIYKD

Text for PPAR delta: Compounds may be screened for functional potency in transient transfection assays in CV-1 cells or other cell types for their ability to activate the PPAR subtypes (transactivation assay). A previously established chimeric receptor system was utilized to allow comparison of the relative transcriptional activity of the receptor subtypes on the same synthetic response element and to prevent endogenous receptor activation from complicating the interpretation of results. […] The ligand binding domains for murine and human PPAR-alpha, PPAR-gamma, and PPAR-delta are each fused to the yeast transcription factor GAL4 DNA binding domain. CV-1 cells were transiently transfected with expression vectors for the respective PPAR chimera along with a reporter construct containing four or five copies of the GAL4 DNA binding site driving expression of luciferase. After 8-16 h, the cells are replated into multi-well assay plates and the media is exchanged to phenol-red free DME medium supplemented with 5% delipidated calf serum. 4 hours after replating, cells were treated with either compounds or 1% DMSO for 20-24 hours. Luciferase activity was then assayed with Britelite (Perkin Elmer) following the manufacturer's protocol and measured with either the Perkin Elmer Viewlux or Molecular Devices Acquest Xsee, for example, Kliewer, S. A., et. al. Cell 1995, 83, 813-819). Rosiglitazone is used as a positive control in the hPPAR-γ assay. Wy-14643 and GW7647 is used as a positive control in the hPPAR-α assay. GW501516 is used as the positive control in the hPPAR-δ assay.

Broadly, the EC50 is the concentration needed to bring the measured effect to its halfway point. Read a high EC50 as weaker potency. Regarding `COC(=O)[C@@H]1CN(S(=O)(=O)c2ccc(C)c(CC(=O)O)c2)CCN1c1ccc(C(F)(F)F)cn1` [Example 42, (S)-4-(3-Carboxymethyl-4-methyl-benzenesulfonyl)-1-(5-trifluoromethyl-pyridin-2-yl)-piperazine-2-carboxylic acid methyl ester], the EC50 at PPAR alpha is greater than 100 µM; on PPAR delta it was less than 5 µM; on PPAR gamma it was 5 to 100 µM.
Take `Cc1ccc(S(=O)(=O)N2CCC(c3nccs3)CC2)cc1CC(=O)O` [Example 43, [2-Methyl-5-(4-thiazol-2-yl-piperidine-1-sulfonyl)-phenyl]-acetic acid]: the EC50 at PPAR alpha, at PPAR delta and at PPAR gamma was greater than 100 µM in each case.
As to `Cc1ccc(S(=O)(=O)N2CCN(c3ncc(I)cn3)CC2)cc1CC(=O)O` [Example 44, {5-[4-(5-Iodo-pyrimidin-2-yl)-piperazine-1-sulfonyl]-2-methyl-phenyl}-acetic acid], the EC50 at PPAR alpha, on PPAR delta and on PPAR gamma was less than 5 µM in each case.
As for `Cc1ccc(S(=O)(=O)N2CC=C(c3ccc(C(F)(F)F)cc3)CC2)cc1CC(=O)O` [Example 45, {2-Methyl-5-[4-(4-trifluoromethyl-phenyl)-3,6-dihydro-2H-pyridine-1-sulfonyl]-phenyl}-acetic acid], the EC50 at PPAR alpha is 5 to 100 µM; at PPAR delta it was less than 5 µM; at PPAR gamma, 5 to 100 µM.
For the compound `Cc1ccc(S(=O)(=O)N2CCC(c3nc(C(F)(F)F)cs3)CC2)cc1CC(=O)O` [Example 46, {2-Methyl-5-[4-(4-trifluoromethyl-thiazol-2-yl)-piperidine-1-sulfonyl]-phenyl}-acetic acid], the values for the EC50 at PPAR alpha, on PPAR delta and at PPAR gamma were greater than 100 µM, greater than 100 µM and 5 to 100 µM, respectively.
For the compound `Cc1ccc(S(=O)(=O)N2CCN(c3ncccn3)CC2)cc1CC(=O)O` [Example 47], the 50% effective concentration (EC50) on PPAR alpha is greater than 100 µM; at PPAR delta it was 5 to 100 µM; on PPAR gamma, 5 to 100 µM.
With `Cc1ccc(S(=O)(=O)N2CCC(c3ccc(C(F)(F)F)cc3)CC2)cc1CC(=O)O` [Example 48, {2-Methyl-5-[4-(4-trifluoromethyl-phenyl)-piperidine-1-sulfonyl]-phenyl}-acetic acid], the 50% effective concentration (EC50) is greater than 100 µM on PPAR alpha and 5 to 100 µM at PPAR gamma. Moreover, the “PPAR delta EC50” value on PPAR delta is given as “B/C”.
Take `Cc1ccc(S(=O)(=O)N2CCC(c3ccc(Cl)c(Cl)c3)CC2)cc1CC(=O)O` [Example 49, {5-[4-(3,4-Dichloro-phenyl)-piperidine-1-sulfonyl]-2-methyl-phenyl)-acetic acid]: the EC50 on PPAR alpha was greater than 100 µM; on PPAR delta, 5 to 100 µM; at PPAR gamma it was 5 to 100 µM.
With `Cc1ccc(S(=O)(=O)N2CCN(c3nc(Cl)cs3)CC2)cc1CC(=O)O` [Example 50, {5-[4-(4-Chloro-thiazol-2-yl)-piperazine-1-sulfonyl]-2-methyl-phenyl}-acetic acid], the EC50 on PPAR alpha was greater than 100 µM; at PPAR delta it was 5 to 100 µM; at PPAR gamma it was 5 to 100 µM.
Consider `Cc1ccc(S(=O)(=O)N2CCN(c3nc(Cl)c(Cl)s3)CC2)cc1CC(=O)O` [Example 51, {5-[4-(4,5-Dichloro-thiazol-2-yl)-piperazine-1-sulfonyl]-2-methyl-phenyl}-acetic acid], for which the EC50 on PPAR alpha is 5 to 100 µM; at PPAR delta, less than 5 µM; at PPAR gamma, less than 5 µM.
For `Cc1ccc(S(=O)(=O)N2CCN(c3nc(C(F)(F)F)cs3)CC2)cc1CC(=O)O` [Example 53, {2-Methyl-5-[4-(4-trifluoromethyl-thiazol-2-yl)-piperazine-1-sulfonyl]-phenyl}-acetic acid], the EC50 on PPAR alpha was greater than 100 µM; at PPAR delta, 5 to 100 µM; at PPAR gamma, 5 to 100 µM.
With `Cc1ccc(S(=O)(=O)N2CCN(c3ncc(C(F)(F)F)cc3Cl)CC2)cc1CC(=O)O` [Example 54, {5-[4-(3-Chloro-5-trifluoromethyl-pyridin-2-yl)-piperazine-1-sulfonyl]-2-methyl-phenyl}-acetic acid], the EC50 at PPAR alpha, on PPAR delta and at PPAR gamma was less than 5 µM in each case.
As to `Cc1ccc(S(=O)(=O)N2CCN(c3ncc(Br)s3)CC2)cc1CC(=O)O` [Example 55, {5-[4-(5-Bromo-thiazol-2-yl)-piperazine-1-sulfonyl]-2-methyl-phenyl}-acetic acid], the figures for the EC50 at PPAR alpha, on PPAR delta and at PPAR gamma were 5 to 100 µM, less than 5 µM and 5 to 100 µM, respectively.
For the compound `Cc1ccc(S(=O)(=O)N2CCN(c3ccc([N+](=O)[O-])cn3)CC2)cc1CC(=O)O` [Example 56, {2-Methyl-5-[4-(5-nitro-pyridin-2-yl)-piperazine-1-sulfonyl]-phenyl}-acetic acid], the concentration giving a half-maximal response (EC50) on PPAR alpha is greater than 100 µM; on PPAR delta it was less than 5 µM; on PPAR gamma, 5 to 100 µM.
The corresponding values for `Cc1ccc(S(=O)(=O)N2CCN(c3ncc(Cl)cn3)CC2)cc1CC(=O)O` [Example 57, {5-[4-(5-Chloro-pyrimidin-2-yl)-piperazine-1-sulfonyl]-2-methyl-phenyl}-acetic acid] are 5 to 100 µM, less than 5 µM and less than 5 µM.
Consider `Cc1ccc(S(=O)(=O)N2CCN(c3ncc(Br)cn3)CC2)cc1CC(=O)O` [Example 58, {5-[4-(5-Bromo-pyrimidin-2-yl)-piperazine-1-sulfonyl]-2-methyl-phenyl}-acetic acid], for which the EC50 at PPAR alpha was 5 to 100 µM; on PPAR delta, less than 5 µM; on PPAR gamma, less than 5 µM.
Take `Cc1ccc(S(=O)(=O)N2CCN(c3ncc(C(F)(F)F)cn3)CC2)cc1CC(=O)O` [Example 59, {2-Methyl-5-[4-(5-trifluoromethyl-pyrimidin-2-yl)-piperazine-1-sulfonyl]-phenyl}-acetic acid]: the EC50 on PPAR alpha, on PPAR delta and at PPAR gamma was less than 5 µM throughout.
For the compound `Cc1ccc(S(=O)(=O)N2CCN(c3ccc(Br)cn3)CC2)cc1CC(=O)O` [Example 61, {5-[4-(5-Bromo-pyridin-2-yl)-piperazine-1-sulfonyl]-2-methyl-phenyl}-acetic acid], the values for the half-maximal effective concentration (EC50) at PPAR alpha, at PPAR delta and at PPAR gamma were greater than 100 µM, less than 5 µM and less than 5 µM, respectively.
As for `Cc1ccc(S(=O)(=O)N2CCN(c3ccc(Cl)cn3)CC2)cc1CC(=O)O` [Example 62, {5-[4-(5-Chloro-pyridin-2-yl)-piperazine-1-sulfonyl]-2-methyl-phenyl}-acetic acid], the concentration giving a half-maximal response (EC50) at PPAR alpha was greater than 100 µM; on PPAR delta it was less than 5 µM. For the same compound, the “PPAR gamma EC50” value at PPAR gamma is on record as “B/C”.
For the compound `Cc1ccc(S(=O)(=O)N2CCN(c3ncc(F)cn3)CC2)cc1CC(=O)O` [Example 63, {5-[4-(5-Fluoro-pyrimidin-2-yl)-piperazine-1-sulfonyl]-2-methyl-phenyl}-acetic acid], the EC50 is greater than 100 µM on PPAR alpha, less than 5 µM on PPAR delta and 5 to 100 µM at PPAR gamma.
The corresponding values for `Cc1ccc(S(=O)(=O)N2CCN(c3nc(Cl)ncc3F)CC2)cc1CC(=O)O` [Example 64, {5-[4-(2-Chloro-5-fluoro-pyrimidin-4-yl)-piperazine-1-sulfonyl]-2-methyl-phenyl}-acetic acid] are greater than 100 µM, greater than 100 µM and 5 to 100 µM.
For `Cc1ccc(S(=O)(=O)N2CC=C(c3ccc(C(F)(F)F)cn3)CC2)cc1CC(=O)O` [Example 66, [2-Methyl-5-(5-trifluoromethyl-3′,6′-dihydro-2^1H-[2,4′]bipyridinyl-1′-sulfonyl)-phenyl]-acetic acid], the concentration for a half-maximal effect (EC50) at PPAR alpha was 5 to 100 µM; on PPAR delta, less than 5 µM; on PPAR gamma it was greater than 100 µM.
